Test: pH of solutions of the active ingredients alone dissolved in ultrapure water
Format: physicochemical
[1] = 17.5 mg/ml (1.75 wt %) in ultrapure water
[2] = 35 mg/ml (3.5 wt %) in ultrapure water
[3] = 70 mg/ml (7 wt %) in ultrapure water
[4] = 140 mg/ml (14 wt %) in ultrapure water
[5] = 280 mg/ml (28 wt %) in ultrapure water

Structure (SMILES) | pH of solution [1] | pH of solution [2] | pH of solution [3] | pH of solution [4] | pH of solution [5]
O=C([O-])[O-].O=C([O-])[O-].OO.OO.OO.[Na+].[Na+].[Na+].[Na+] [Sodium Percarbonate, Sodium percarbonate] | 10.83 | 10.89 | 10.87 | 10.83 | 10.74
NC(N)=O.OO [Urea Hydrogen Peroxide, urea hydrogen peroxide] | 7.90 | 6.92 | 6.9 | 6.38 | 4.97

From US20180207105A1, “METHOD FOR MANUFACTURING A THERAPEUTIC AGENT FOR USE IN THE TREATMENT OF INFECTIONS” (AGA NANOTECH LTD, priority 2014, published 2018)
